The values below come from patent US20190367516A1 (Bayer Pharma Aktiengesellschaft, priority 2015, published 2019).

One may read the EC50 as the concentration at which the effect is half-maximal. High values mean a less potent agent, low ones a more potent agent.

SMILES strings stand for the structures. Like-named read-outs stand apart in the source and are kept apart here.

Test [1] concerns the target T1, human M2 receptor (Homo sapiens, UniProt P08172).
T1 sequence (P08172 1-466): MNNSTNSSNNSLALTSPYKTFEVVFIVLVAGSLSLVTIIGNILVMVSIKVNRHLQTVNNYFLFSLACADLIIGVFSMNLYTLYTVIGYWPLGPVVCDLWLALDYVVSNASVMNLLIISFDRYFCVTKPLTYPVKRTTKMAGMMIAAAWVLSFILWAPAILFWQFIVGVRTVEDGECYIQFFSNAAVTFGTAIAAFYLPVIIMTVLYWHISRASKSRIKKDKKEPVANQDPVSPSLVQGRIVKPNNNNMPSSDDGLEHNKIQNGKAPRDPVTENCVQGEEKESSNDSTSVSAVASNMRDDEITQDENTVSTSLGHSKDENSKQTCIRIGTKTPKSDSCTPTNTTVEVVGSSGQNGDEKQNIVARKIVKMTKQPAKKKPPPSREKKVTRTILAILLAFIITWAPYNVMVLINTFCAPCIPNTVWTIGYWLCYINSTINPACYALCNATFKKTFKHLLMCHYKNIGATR
The test is classed as cell-based. The conditions noted are these: α >1 = positive cooperativity.

In test [2] the target is T1, human M2 receptor.
Where [3] appears, read: shift of acetylcholine dose-response curve (Allosteric EC50 shift).
The mark [4] stands for this setting: Receptor activity EC50, allosteric potency at EC20 acetylcholine, M2-GIRK1/4 reporter cells, in some cases mean of two or more determinations.
Setting [5] is: read-out: Efficiency, boosting of the acetylcholine effect at EC20 acetylcholine concentration, M2-GIRK1/4 reporter cells.
Where [6] appears, read: shift in the acetylcholine dose-response curve (Allosteric EC50 shift, GraphPad PRISM).
The mark [7] stands for this setting: Receptor activity EC50, M2-GIRK1/4 activation test, acetylcholine at EC20, allosteric potency, in some cases mean values from two or more determinations.

For `CCN1CCCN(c2ccc3c(=O)c(C(=O)N[C@@H](C4CC4)C(F)(F)F)cn(-c4c(F)cc(F)cc4F)c3n2)C1=O` [Example 539, N-[(1S)-1-Cyclopropyl-2,2,2-trifluoroethyl]-7-(3-ethyl-2-oxotetrahydropyrimidin-1(2H)-yl)-4-oxo-1-(2,4,6-trifluorophenyl)-1,4-dihydro-1,8-naphthyridine-3-carboxamide], the “Cooperativity (alpha factor)” value at human M2 receptor [1] (setting [3]) is recorded as 21. The same compound displayed an EC50 on human M2 receptor [2] (setting [4]) of 0.007 µM. Also, on human M2 receptor [2] (setting [5]), the Emax was found to be 86.5%.
For `CCC(NC(=O)c1cn(-c2c(F)cc(F)cc2F)c2nc(N3C[C@@H](O)CC3=O)ccc2c1=O)C(C)C` (mixture of isomers) [Example 484, 7-[(4S)-4-Hydroxy-2-oxopyrrolidin-1-yl]-N-[2-methylpentan-3-yl]-4-oxo-1-(2,4,6-trifluorophenyl)-1,4-dihydro-1,8-naphthyridine-3-carboxamide] the same measures were 44, 0.006 µM and 99.5%.
For `O=C(NC12CC(C1)C2)c1cn(-c2c(F)cc(F)cc2Cl)c2nc(N3C[C@@H](O)[C@H](O)C3)ccc2c1=O` [Example 402, N-(Bicyclo[1.1.1]pent-1-yl)-1-(2-chloro-4,6-difluorophenyl)-7-[(3R,4R)-3,4-dihydroxypyrrolidin-1-yl]-4-oxo-1,4-dihydro-1,8-naphthyridine-3-carboxamide] the same measures were 18, 0.025 µM and 97.5%.
In the case of `CC[C@@H](NC(=O)c1cn(-c2ccc(F)cc2F)c2nc(N3CCCC3)ccc2c1=O)C(F)(F)F` [Example 192, 1-(2,4-Difluorophenyl)-4-oxo-7-(pyrrolidin-1-yl)-N-[(2R)-1,1,1-trifluorobutan-2-yl]-1,4-dihydro-1,8-naphthyridine-3-carboxamide], the “Cooperativity (alpha factor)” value at human M2 receptor [1] (setting [6]) was found to be 9. Also, on human M2 receptor [2] (setting [7]), a half-maximal response (EC50) required 0.054 µM.
Turning to `CC[C@@H](NC(=O)c1cn(-c2c(F)cccc2F)c2nc(N3C[C@@H](O)[C@H](O)C3)ccc2c1=O)C(F)(F)F` [Example 618, 1-(2,6-Difluorophenyl)-7-[(3R,4R)-3,4-dihydroxypyrrolidin-1-yl]-4-oxo-N-[(2R)-1,1,1-trifluorobutan-2-yl]-1,4-dihydro-1,8-naphthyridine-3-carboxamide], the “Cooperativity (alpha factor)” value on human M2 receptor [1] (setting [3]) was determined as 30. On human M2 receptor [2] (setting [4]), a half-maximal response (EC50) required 0.039 µM. Further, on human M2 receptor [2] (setting [5]), the Emax stood at 99%.
With `CC[C@@H](NC(=O)c1cn(-c2ccc(F)cc2F)c2nc(N3C[C@@H](F)C[C@H]3C)ccc2c1=O)C(F)(F)F` [Example 31, 1-(2,4-Difluorophenyl)-7-[(2R,4S)-4-fluoro-2-methylpyrrolidin-1-yl]-4-oxo-N-[(2R)-1,1,1-trifluorobutan-2-yl]-1,4-dihydro-1,8-naphthyridine-3-carboxamide], the “Cooperativity (alpha factor)” value at human M2 receptor [1] (setting [6]) was 13. The compound further had a concentration giving a half-maximal response (EC50) on human M2 receptor [2] (setting [7]) of 0.04 µM.
On the same counts, the results for `CC12CCC(NC(=O)c3cn(-c4ccc(F)cc4F)c4nc(N5CC(O)CC5=O)ccc4c3=O)(CC1)CC2` (centres unmarked) [Example 181] are 36 and 0.059 µM.
For `CN(C)c1ccc2c(=O)c(C(=O)NC(C(C)(C)C)C(F)(F)F)cn(-c3ccc(F)cc3F)c2n1` (stereo in doubt) [Example 132, 1-(2,4-Difluorophenyl)-7-(dimethylamino)-4-oxo-N-[(2S)-1,1,1-trifluoro-3,3-dimethylbutan-2-yl]-1,4-dihydro-1,8-naphthyridine-3-carboxamide] the same measures were 7 and 0.01 µM.
On the same counts, the results for `CC12CCC(NC(=O)c3cn(-c4ccc(F)cc4F)c4nc(NCC(F)(F)F)ccc4c3=O)(CC1)CC2` [Example 98, 1-(2,4-Difluorophenyl)-N-(4-methylbicyclo[2.2.2]oct-1-yl)-4-oxo-7-[(2,2,2-trifluoroethyl)amino]-1,4-dihydro-1,8-naphthyridine-3-carboxamide] are 14 and 0.061 µM.
Take `CC(C)C(NC(=O)c1cn(-c2c(F)cc(F)cc2F)c2nc(N3C[C@@H](O)CC3=O)ccc2c1=O)C(F)(F)F` (single isomer, unassigned) [Example 527]: the “Cooperativity (alpha factor)” value on human M2 receptor [1] (setting [3]) is listed as 61. Moreover, the EC50 on human M2 receptor [2] (setting [4]) stood at 0.005 µM. Besides, the Emax at human M2 receptor [2] (setting [5]) came to 100%.
For `CCC(NC(=O)c1cn(-c2ccc(F)cc2F)c2nc(N3C[C@@H](O)CC3=O)ccc2c1=O)C(F)(F)C(F)(F)F` (single isomer, unassigned) [Example 557] the same measures were 44, 0.011 µM and 100%.
With `O=C(N[C@H](c1ccccc1Cl)C(F)(F)F)c1cn(-c2ccc(F)cc2F)c2nc(N3CCCC(O)C3=O)ccc2c1=O` (single isomer, unassigned) [Example 208], on human M2 receptor [1] (setting [6]), the “Cooperativity (alpha factor)” value stood at 23. This compound registered a concentration for a half-maximal effect (EC50) on human M2 receptor [2] (setting [7]) of 0.115 µM.
`CC(C)(NC(=O)c1cn(-c2c(F)cc(F)cc2F)c2nc(N3C[C@@H](O)[C@H](O)C3)ccc2c1=O)C(F)F` [Example 634, N-(1,1-Difluoro-2-methylpropan-2-yl)-7-[(3R,4R)-3,4-dihydroxypyrrolidin-1-yl]-4-oxo-1-(2,4,6-trifluorophenyl)-1,4-dihydro-1,8-naphthyridine-3-carboxamide]: the “Cooperativity (alpha factor)” value at human M2 receptor [1] (setting [3]) was 48. The response on human M2 receptor [2] (setting [4]) was half-maximal at 0.054 µM (EC50). The Emax on human M2 receptor [2] (setting [5]) stood at 100%.
With `CC(C)C(NC(=O)c1cn(-c2c(F)cc(F)cc2F)c2nc(N3CCNC3=O)ccc2c1=O)C(F)(F)F` (racemic) [Example 538, 4-Oxo-7-(2-oxoimidazolidin-1-yl)-N-[1,1,1-trifluoro-3-methylbutan-2-yl]-1-(2,4,6-trifluorophenyl)-1,4-dihydro-1,8-naphthyridine-3-carboxamide], the “Cooperativity (alpha factor)” value on human M2 receptor [1] (setting [3]) turned out to be 40. Also, at human M2 receptor [2] (setting [4]), the midpoint of the response, the EC50, lay at 0.007 µM. Also, at human M2 receptor [2] (boosting of the acetylcholine effect at EC20 acetylcholine concentration, M2-GIRK1/4 reporter cells), the Efficiency is on record as 100.0%.
For `CC[C@@H](NC(=O)c1cn(-c2ccccc2F)c2nc(N3C[C@@H](O)CC3=O)ccc2c1=O)C(F)(F)F` [Example 239, 1-(2-Fluorophenyl)-7-[(4S)-4-hydroxy-2-oxopyrrolidin-1-yl]-4-oxo-N-[(2R)-1,1,1-trifluorobutan-2-yl]-1,4-dihydro-1,8-naphthyridine-3-carboxamide], the “Cooperativity (alpha factor)” value at human M2 receptor [1] (setting [6]) is 30. The compound also displayed an EC50 on human M2 receptor [2] (setting [7]) of 0.112 µM. Moreover, on human M2 receptor [2] (read-out: Efficiency), the Emax stood at 99.3%.
Take `CCC(NC(=O)c1cn(-c2ccc(F)cc2F)c2nc(N3CCCC3=O)ccc2c1=O)C(F)(F)F` (centres unmarked) [Example 177]: on human M2 receptor [1] (setting [6]), the “Cooperativity (alpha factor)” value is 5. On human M2 receptor [2] (setting [7]), this compound displayed an EC50 of 0.138 µM.
For `O=C(NC(CC(F)(F)F)C(F)(F)F)c1cn(-c2c(F)cc(F)cc2F)c2nc(N3C[C@@H](O)CC3=O)ccc2c1=O` (single isomer, unassigned) [Example 607], the “Cooperativity (alpha factor)” value on human M2 receptor [1] (setting [3]) worked out at 32. At human M2 receptor [2] (setting [4]), this compound had an EC50 of 0.005 µM. For the same compound, the Emax at human M2 receptor [2] (setting [5]) is 100%.
Take `CC(C)(C)C(NC(=O)c1cn(-c2c(F)cc(F)cc2F)c2nc(N3CCNC3=O)ccc2c1=O)C(F)(F)F` (stereo in doubt) [Example 360, 4-Oxo-7-(2-oxoimidazolidin-1-yl)-N-[(2S)-1,1,1-trifluoro-3,3-dimethylbutan-2-yl]-1-(2,4,6-trifluorophenyl)-1,4-dihydro-1,8-naphthyridine-3-carboxamide]: at human M2 receptor [1] (setting [6]), the “Cooperativity (alpha factor)” value is 36. For the same compound, the EC50 on human M2 receptor [2] (setting [7]) turned out to be 0.006 µM.
For `COC(=O)N1CCN(c2ccc3c(=O)c(C(=O)Nc4c(Cl)cccc4Cl)cn(-c4ccc(F)cc4F)c3n2)CC1` [Example 164, Methyl 4-{6-[(2,6-dichlorophenyl)carbamoyl]-8-(2,4-difluorophenyl)-5-oxo-5,8-dihydro-1,8-naphthyridin-2-yl}piperazine-1-carboxylate] the same measures were 21 and 0.031 µM.
On the same counts, the results for `CCC(NC(=O)c1cn(-c2ccc(F)cc2F)c2nc(N3CC[C@H](F)C3)ccc2c1=O)C(F)(F)F` (stereo partly drawn) [Example 71, 1-(2,4-Difluorophenyl)-7-[(3S)-3-fluoropyrrolidin-1-yl]-4-oxo-N-[1,1,1-trifluorobutan-2-yl]-1,4-dihydro-1,8-naphthyridine-3-carboxamide] are 30 and 0.039 µM.
For `CC(C)(C)[C@H](NC(=O)c1cn(-c2c(F)cc(F)cc2F)c2nc(N3C[C@@H](O)[C@H](O)C3)ccc2c1=O)C(F)(F)F` [Example 369, 7-[(3R,4R)-3,4-Dihydroxypyrrolidin-1-yl]-4-oxo-N-[(2S)-1,1,1-trifluoro-3,3-dimethylbutan-2-yl]-1-(2,4,6-trifluorophenyl)-1,4-dihydro-1,8-naphthyridine-3-carboxamide], the “Cooperativity (alpha factor)” value on human M2 receptor [1] (setting [6]) is given as 39. On human M2 receptor [2] (setting [7]), this compound had an EC50 of 0.008 µM. In addition, the Emax on human M2 receptor [2] (read-out: Efficiency) was 95%.
